Measurements published in a melting point compilation (Tetko et al.; mined from patent text by program, amines drawn as free bases though some values may be those of a salt).

| SMILES | melting point |
| --- | --- |
| CCOC(=O)NC(=O)CC(=O)NC(=O)OCC | 177 to 178 °C |
| COc1cccc(OC)c1-c1ccc(C[C@H](NC(=O)c2c(Cl)cc(-c3cscn3)cc2Cl)C(=O)O)cc1 | 186 °C |
| O=C1NC(C(=O)NCCO[N+](=O)[O-])C(c2cccs2)S1 (stereo unspecified) | 120 to 122 °C |
| CSCCC(NCc1cc(Br)cc(Br)c1N)C(=O)O (stereo unspecified) | 212 °C |
| CCOC(=O)CCc1cccc(N)c1 | 132 to 135 °C |
| O=c1ncc(Br)cn1CCCl | 185 to 186 °C |
| CCS(=O)(=O)N1CCSc2cccc(Cl)c2C1 | 126 to 128 °C |
| CCCCCCc1ccc(CCc2cc3c(s2)NC(=S)CN=C3c2ccccc2Cl)cc1 | 140 to 145 °C |
| CC(=O)NC1(c2ccc(C(C)Cl)cc2)CC1 (stereo unspecified) | 104 to 107 °C |
| CCCCNC(=O)N1N=C(c2ccc([N+](=O)[O-])cc2)c2cc(Cl)ccc2CC1C (stereo unspecified) | 150 °C |
| O=c1[nH]c2cc(Cl)ccc2n1CCO | 176 to 178 °C |
| COc1ccc(Cl)cc1C1CC(=O)c2c(C)ccnc2C1 (stereo unspecified) | 131 to 133 °C |
| N#Cc1ccc(COC2COc3nc([N+](=O)[O-])cn3C2)cc1 (stereo unspecified) | 166 to 167 °C |
| Nc1nnc(OCc2ccccc2)s1 | 173 to 175 °C |
| NC(=O)c1cc2c(SCc3ccc(Cl)cc3)cncc2s1 | 198 to 199 °C |
| CS(=O)(=O)c1cc([N+](=O)[O-])cc(O)c1O | 221 to 224 °C |
| COc1cc2c(cc1O)CCN(Cc1cccc(C(C)=O)c1)C2 | 132 to 134 °C |
| O=P(O)(O)c1cccc(Br)c1 | 144 to 149 °C |
| Fc1cc(Cl)ccc1-c1ncnc(C(F)F)c1Cl | 76 to 77 °C |
| Cc1ccc(C(=O)c2c(C)cc(C)cc2O)cc1 | 102 to 105 °C |
| CC(C)c1nc(CO)[nH]c1Sc1cc(Cl)cc(Cl)c1 | 191 to 192 °C |
| COc1cc(SC)sc1C1NC(C)(C)CO1 (stereo unspecified) | 56 to 58 °C |
| COc1ccc2cc(C(C)C)ccc2c1 | 63.5 to 64.5 °C |
| CCOC(=O)c1cn(C)c2cnc3cc(F)c(N4CC5(C)CC4CC(C)(C)C5)cc3c2c1=O (stereo unspecified) | 187 °C |
| C=CCNc1nc(NCCC)nc2c(C)csc12 | 74 to 75 °C |

| SMILES | melting point |
| --- | --- |
| O=C1C[C@@H](O)C[C@H](CCc2c(Cl)cc(Cl)c3ccc(Cl)cc23)O1 (relative stereo) | 111 to 115 °C |
| CCOC(=O)N1CCC(n2c(=O)n(C)c3cc(Cl)ccc32)CC1 | 122 °C |
| CCC(=O)N1N=C(c2ccc(N)cc2)c2cc(Br)ccc2CC1C (stereo unspecified) | 99 to 102 °C |
| COc1ccc(NC(=O)N2CCC(C)C2=O)cc1 (stereo unspecified) | 71 to 72 °C |
| CC(/C=C/c1c(C)sc(C)c1C)=C(F)\C=C\C(C)=C\CO | 106 to 108 °C |
| CCCCN=c1cc2n(c(=O)n1C)CCc1cc(OC)c(OC)cc1-2 | 120 to 121 °C |
| CC(C)N1CC(=O)N(C(C)C)CC1=O | 177 to 180 °C |
| C[C@@H](Nc1nc(Nc2cccc(NS(C)(=O)=O)c2)nc2[nH]ccc12)C(C)(C)C | 125 to 128 °C |
| N#CCc1cc(Cl)cc(Cl)c1Cl | 60 to 62 °C |
| Cc1oc(-c2ccc(S(C)(=O)=O)cc2)c(Oc2ccc(Cl)cc2)c(=O)c1Cl | 274 °C |
| CC(C)c1cc(C(=O)Nc2ccc(C(=O)O)cn2)sc1C(C)C | > 300 °C |
| CCOCCOc1ccc(C(=O)Oc2ccc(C#N)c(F)c2)cc1 | 62.4 to 63.2 °C |
| CCOC(=O)c1c(O)c2cc(Cl)ccc2c(=O)n1C | 110 to 111 °C |
| O=C(OO)c1cccc(Cl)c1 | 127 to 129 °C |
| CC(CC(C)C)=Nc1cc2c(cc1F)OCC(=O)N2 | 113 to 115 °C |
| CCOC(=O)Cc1cc(C)c(C(=O)c2ccc([N+](=O)[O-])cc2)n1C | 148 to 149 °C |
| COC(=O)Nc1cc(OC2CCCC2)c(Cl)cc1F | 120 to 123 °C |
| COc1ccc(Oc2cn(C)cc(-c3cccc(C(F)(F)F)c3)c2=O)cc1 | 119 to 120 °C |
| Cc1cc(C(N)C(=O)O)ccc1O (stereo unspecified) | 205 to 207 °C |
| C[C@H](NC(=O)c1c(C(=O)O)cccc1[N+](=O)[O-])C(=O)N1CCC[C@H]1C(=O)O | 134 to 137 °C |
| Nc1ncnc2c1ncn2Cc1nc2cccc(Cl)c2c(=O)n1-c1ccccc1F | 296 °C |
| CC(C)c1ccc(C(C[N+](=O)[O-])SC(=S)N(C)C)cc1 (stereo unspecified) | 119 to 120 °C |
| ClCc1coc(-c2cc(Cl)cs2)n1 | 72 to 73 °C |
| O=C1C(=Cn2ccnc2)CSc2ccc(Cl)cc21 | 139 to 141 °C |

Next, values leading:

| melting point | SMILES |
| --- | --- |
| > 230 °C | O=C(C(c1ccccc1)n1cnc2[nH]ncc2c1=S)N1CCCCCC1 (stereo unspecified) |
| 103 to 109 °C | CCCNC(=O)C(C)Cc1ccc2c(c1)c(Cc1ccc(C(=O)O)cc1OC)cn2C(C)C (stereo unspecified) |
| 49 to 51 °C | O=C(c1ccccc1)c1ccncc1Cl |
| 147 to 149 °C | O=C(O)[C@@H](CC(=O)N1CCOCC1)NS(=O)(=O)c1ccc(Oc2ccccc2)cc1 |
| 165 to 166 °C | NS(=O)(=O)c1cc(CCNC(=O)/C=C/c2cccs2)ccc1-c1ccco1 |
| 70 to 73 °C | COc1ccc(S(=O)(=O)C2=C(C(=O)NO)CCC2=CCCc2ccccc2)cc1OC |
| 98 to 100 °C | Cc1ccc(C(Cn2cncn2)c2ccccc2)cc1 (stereo unspecified) |
| 203 to 204 °C | CCOc1cc2cc(CO)cc(-c3ccnc(-n4nc(-c5ccccc5)c5ccccc5c4=O)c3)c2cc1OCC |
| 182 to 184 °C | CC1=NC(NC(=O)Nc2cccc(C)c2)C(=O)N(CC(=O)C23CC4CC(CC(C4)C2)C3)c2c(C)cccc21 (stereo unspecified) |
| 182 to 184 °C | CNC1=NS(=O)(=O)N=C1NCCCOc1cccc(CN2CCCCC2)c1 |
| 170 to 175 °C | CS(=O)(=O)Nc1ccc(OCCN2CCN(C(=O)c3ccc(NS(C)(=O)=O)cc3)CC2)cc1 |
| 137 to 138 °C | CCC(NC(C)=O)c1ccc(CN2CCN(c3ccc(F)cc3F)CC2)cc1 (stereo unspecified) |
| 123 to 124 °C | CC1CCCN(Cc2cccc(OCCCCNc3nnc(N)s3)c2)C1 (stereo unspecified) |
| 185 °C | O=C(COc1cc(-c2ccccn2)nc2ccccc12)N1CCOCC1 |
| 152 to 155 °C | COc1ccc(S(=O)(=O)Nc2ncccc2/C=C/c2ccccc2)cc1 |
| 180 °C | O=C(NCC(=O)N(c1ccccc1)c1ccccc1)Nc1cccc([N+](=O)[O-])c1 |
| 143 to 145 °C | O=C(C=Cc1cccnc1)NCCCCC1CCN(C(Br)(c2ccccc2)C2CCCCC2)CC1 (stereo unspecified) |
| 88 °C | CC(=O)OCCCCN(C)CCCN(C)C(=O)[C@@H]1CCCN1S(=O)(=O)c1ccc(Cl)c(COc2cccc3c(-n4ccnc4)cc(C)nc23)c1Cl |
| > 300 °C | O=c1c(O)nc2cccnc2n1-c1ccc(Cl)cc1 |
| 155 °C | CN(C)[C@H]1CC[C@H](Nc2ncc3ncnc(Nc4ccc(OCc5ccccc5)cc4)c3n2)CC1 |
| 71 to 72 °C | Cc1oc(-c2ccccc2)nc1CCc1noc(CCl)n1 |
| 202 to 203 °C | O=C1CCCc2ccc(OCCCCN3CCN(c4cccc5ccc(F)cc45)CC3)nc2N1 |
| 139 °C | CCCCOc1cc(-c2cc3ccccc3[nH]2)ccc1OCC |
| 176 °C | CC(C)n1c(=O)n(C(=O)NCC2CCN(CC3(C(=O)O)CCOCC3)CC2)c2ccccc21 |
| 121 to 123 °C | Cc1occc1C(=O)Nc1ccc(Cl)c(C=NN2CCOCC2)c1 |
| 144 °C | COc1cc(NC(C)=O)ccc1OCC(O)CN1CCN(c2ccccc2F)CC1 (stereo unspecified) |

| melting point | SMILES |
| --- | --- |
| 40 °C | CCC(=O)OCCN1CCc2cc(Nc3ncc(Cl)c(Nc4ccccc4S(=O)(=O)N(C)C)n3)c(OC)cc2CC1 |
| 125 to 127 °C | COc1cccc(OC2CN([C@H]3CC[C@@H](c4c[nH]c5ccc(F)cc54)CC3)C2)c1 |
| 99 to 105 °C | CC(C)(C)OC(=O)NC(C)(C)c1ccc(-c2ccc3nn(C4CCCCO4)cc3c2-c2cc[nH]n2)cc1 (stereo unspecified) |
| 83 to 85 °C | O=C(O)Cc1ccc(OCCCN2CCC(c3cn(CC4CC4)c4ccccc34)CC2)cc1 |
| 290 to 292 °C | NC1CCN(c2c(F)cc3c(=O)c(C(=O)O)cn(C4CC4)c3c2F)C1 (stereo unspecified) |
| 256 to 257 °C | CC(C)(C)C(NC(=O)c1ccc(I)cc1)Nc1c(Nc2cccnc2)c(=O)c1=O (stereo unspecified) |
| 175 °C | COc1ccc(CN2CCC(C(=O)O)(S(=O)(=O)c3ccc(OC)cc3)CC2)cc1 |
| 65 to 68 °C | c1ccc2c(c1)ccn2Cc1ccncc1 |
| 64 to 65 °C | CCCCCC(=O)SC1CCN(C(C(=O)C2CC2)c2ccccc2F)CC1 (stereo unspecified) |
| 69 to 71 °C | COc1cccc(N(C)CCNC(C)=O)c1 |
| 102 to 104 °C | OCC(CO)(c1ccccc1)c1ccccc1 |
| 87 °C | CCOC(=O)c1ccc(N=C(C)c2ccccc2)cc1 |
| 128 to 129 °C | O=C(O)[C@H](Cc1ccc(C(F)(F)F)cc1)[C@@H](O)c1ccc(Oc2ccccc2)cc1 (racemic) |
| 87 to 89 °C | BrCc1nc2cc(OCc3ccccc3)ccc2s1 |
| 210 to 212 °C | Cn1cc(C(=O)O)cc1C(=O)c1ccccc1 |
| 177 °C | Cc1ccc(Cn2c(NC3CCN(CC#N)CC3)nc3ccccc32)o1 |
| 25 to 26 °C | O=C(Cl)COC(=O)c1ccccc1 |
| 181 °C | O=C(Nc1cccc(C(F)(F)F)c1)N1CCc2cc(Oc3cc(Cl)ncn3)ccc21 |
| 178 to 180 °C | O=C(/C=C/C=C/C(=O)NCCCOc1cccc(CN2CCCC2)c1)NCCCOc1cccc(CN2CCCC2)c1 |
| 177 to 179 °C | CCCS(=O)(=O)Cc1cccc(-c2nc(=O)c3ccccc3s2)n1 |
| 175 °C | COc1cc(-c2nc3ccc(OCCN4CCOCC4)cc3n2Cc2ccccc2C(F)(F)F)cc(OC)c1OC |
| 211 to 213 °C | CCOCc1nc2c(N)nc3ccccc3c2n1CCN1C(C)=NOC12CCCC2 |
| 83 °C | COC(=O)N1CCN(C(=O)N2CCC(c3cccnc3)C2)c2ccccc21 (stereo unspecified) |
| 137 to 138 °C | COc1ccc(-c2cc(=O)n(Cc3ccccc3)nc2-c2ccc(OC)c(F)c2)cc1 |
| 101 to 102 °C | O=C1C[C@@H]2[C@@H](/C=C/[C@@H](O)COc3cccc(Cl)c3)[C@H](OC(=O)c3ccccc3)C[C@@H]2O1 |
| 207 to 209 °C | CCc1nc(OC)c(NC(=O)N2CCN(c3cccc(O)c3)CC2)cc1C(=O)NC(C)C(=O)Nc1cc(CO)cc(Nc2c3ccccc3nc3ccccc23)c1 (stereo unspecified) |
